Assay results taken from ChEMBL document CHEMBL1201862, “PubChem BioAssay data set” (2004).
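These data come from cells grown in 96-well plates and exposed to compound for 48 hours at five concentrations. At the GI50, growth is halved.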 The source made the active and inactive calls. Rule as the data show it: active = GI50 up to about 1.1 µM and inactive = higher.

What was measured:
Assay in all cases: inhibition of tumour cell growth, NCI panel, 48 h
[1] = test system: 786-0
[2] = test system: A498
[3] = test system: A549
[4] = test system: ACHN
[5] = test system: BT-549
[6] = test system: CAKI-1
[7] = test system: CCRF-CEM
[8] = test system: COLO 205
[9] = test system: DU-145
[10] = test system: EKVX
[11] = test system: HCC 2998
[12] = test system: HCT-116
[13] = test system: HCT-15
[14] = test system: HOP-62
[15] = test system: HOP-92
[16] = test system: HT-29
[17] = test system: Hs-578T
[18] = test system: IGROV-1
[19] = test system: K562
[20] = test system: KM12
[21] = test system: LOX IMVI
[22] = test system: M14
[23] = test system: MCF7
[24] = test system: MDA-MB-231
[25] = test system: MDA-MB-435
[26] = test system: MDA-N
[27] = test system: MOLT-4
[28] = test system: Malme-3M
[29] = test system: NCI-H226
[30] = test system: NCI-H23
[31] = test system: NCI-H460
[32] = test system: NCI-H522
[33] = test system: NCI/ADR-RES
[34] = test system: OVCAR-3
[35] = test system: OVCAR-4
[36] = test system: OVCAR-5
[37] = test system: OVCAR-8
[38] = test system: PC-3
[39] = test system: RPMI-8226
[40] = test system: RXF 393
[41] = test system: SF-268
[42] = test system: SF-295
[43] = test system: SF-539
[44] = test system: SK-MEL-28
[45] = test system: SK-MEL-2
[46] = test system: SK-MEL-5
[47] = test system: SK-OV-3
[48] = test system: SN12C
[49] = test system: SNB-19
[50] = test system: SNB-75
[51] = test system: SW-620
[52] = test system: T47D
[53] = test system: TK-10
[54] = test system: U-251
[55] = test system: UACC-257
[56] = test system: UACC-62
[57] = test system: UO-31

## Clc1ccc(C2ON=C(c3ccccc3)N2C23CC4CC(CC(C4)C2)C3)cc1Cl (configuration not stated)
[1]
  GI50: > 10 µM (inactive)
[2]
  GI50: > 10 µM (inactive)
[3]
  GI50: > 10 µM (inactive)
[4]
  GI50: > 10 µM (inactive)
[5]
  GI50: > 10 µM (inactive)
[6]
  GI50: > 10 µM (inactive)
[7]
  GI50: > 10 µM (inactive)
[8]
  GI50: > 10 µM (inactive)
[9]
  GI50: > 10 µM (inactive)
[10]
  GI50: > 10 µM (inactive)
[11]
  GI50: > 10 µM (inactive)
[12]
  GI50: > 10 µM (inactive)
[13]
  GI50: > 10 µM
[14]
  GI50: > 10 µM (inactive)
[15]
  GI50: 7.13 µM (inactive)
[16]
  GI50: > 10 µM (inactive)
[17]
  GI50: > 10 µM (inactive)
[18]
  GI50: > 10 µM (inactive)
[19]
  GI50: > 10 µM (inactive)
[20]
  GI50: > 10 µM (inactive)
[21]
  GI50: > 10 µM (inactive)
[22]
  GI50: > 10 µM (inactive)
[23]
  GI50: > 10 µM (inactive)
[24]
  GI50: > 10 µM (inactive)
[25]
  GI50: > 10 µM (inactive)
[26]
  GI50: > 10 µM (inactive)
[27]
  GI50: > 10 µM (inactive)
[28]
  GI50: > 10 µM (inactive)
[29]
  GI50: > 10 µM (inactive)
[30]
  GI50: > 10 µM (inactive)
[31]
  GI50: > 10 µM (inactive)
[32]
  GI50: > 10 µM (inactive)
[33]
  GI50: > 10 µM (inactive)
[34]
  GI50: > 10 µM (inactive)
[35]
  GI50: > 10 µM (inactive)
[36]
  GI50: > 10 µM (inactive)
[37]
  GI50: > 10 µM (inactive)
[38]
  GI50: > 10 µM (inactive)
[39]
  GI50: > 10 µM (inactive)
[40]
  GI50: > 10 µM (inactive)
[41]
  GI50: > 10 µM (inactive)
[42]
  GI50: > 10 µM (inactive)
[43]
  GI50: > 10 µM (inactive)
[44]
  GI50: 7.93 µM (inactive)
[45]
  GI50: > 10 µM (inactive)
[46]
  GI50: > 10 µM (inactive)
[47]
  GI50: > 10 µM (inactive)
[48]
  GI50: > 10 µM (inactive)
[49]
  GI50: > 10 µM (inactive)
[50]
  GI50: > 10 µM (inactive)
[51]
  GI50: > 10 µM (inactive)
[52]
  GI50: > 10 µM (inactive)
[53]
  GI50: > 10 µM (inactive)
[54]
  GI50: > 10 µM (inactive)
[55]
  GI50: > 10 µM (inactive)
[56]
  GI50: > 10 µM (inactive)
[57]
  GI50: > 10 µM (inactive)
